Patent US20210053957A1, “HERBICIDAL COMPOUNDS” (SYNGENTA PARTICIPATIONS AG, priority 2018, published 2021)

Columns and labels:
Experiment in all cases: Post-emergence efficacy, glasshouse spray test
Type in all cases: in vivo
[1] = tested on: Amaranthus palmeri (AMAPA); conditions: Application Rate 500 g/Ha, evaluated after 13 days; for pest or weed control at 500 g/ha: Amaranthus palmeri, post-emergence, 312 h, read-out: Control of weed species after post-emergence application, AMAPA (100=total damage to plant; 0=no damage to plant)
Outline: (§1)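 Spray solution: compound dissolved in acetone and IF50 emulsifier/solvent mix to 50 g/l stock, then diluted to test concentration in 0.25% or 1% sodium lauryl ether sulphate + 1% ammonium sulphate. Applied post-emergence to 14-day plants; injury scored 0–100 after 13 days.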

[2] = tested on: Chenopodium album (CHEAL); conditions: Application Rate 500 g/Ha, evaluated after 13 days; for pest or weed control at 500 g/ha: Chenopodium album, post-emergence, 312 h, read-out: Control of weed species after post-emergence application, CHEAL (100=total damage to plant; 0=no damage to plant)
Outline: as §1

[3] = tested on: Digitaria sanguinalis (DIGSA); conditions: Application Rate 500 g/Ha, evaluated after 13 days; for pest or weed control at 500 g/ha: Digitaria sanguinalis, post-emergence, 312 h, read-out: Control of weed species after post-emergence application, DIGSA (100=total damage to plant; 0=no damage to plant)
Outline: as §1

[4] = tested on: Echinochloa crus-galli (ECHCG); conditions: Application Rate 500 g/Ha, evaluated after 13 days; for pest or weed control at 500 g/ha: Echinochloa crus-galli, post-emergence, 312 h, read-out: Control of weed species after post-emergence application, ECHCG (100=total damage to plant; 0=no damage to plant)
Outline: as §1

Eleusine indica (ELEIN) = conditions: Application Rate 500 g/Ha, evaluated after 13 days; for pest or weed control at 500 g/ha: Eleusine indica, post-emergence, 312 h, read-out: Control of weed species after post-emergence application, ELEIN (100=total damage to plant; 0=no damage to plant)
Outline: as §1

[5] = tested on: Euphorbia heterophylla (EPHHL); conditions: Application Rate 500 g/Ha, evaluated after 13 days; for pest or weed control at 500 g/ha: Euphorbia heterophylla, post-emergence, 312 h, read-out: Control of weed species after post-emergence application, EPHHL (100=total damage to plant; 0=no damage to plant)
Outline: as §1

[6] = tested on: Ipomoea hederacea (IPOHE); conditions: Application Rate 500 g/Ha, evaluated after 13 days; for pest or weed control at 500 g/ha: Ipomoea hederacea, post-emergence, 312 h, read-out: Control of weed species after post-emergence application, IPOHE (100=total damage to plant; 0=no damage to plant)
Outline: as §1

Lolium perenne (LOLPE) = conditions: Application Rate 500 g/Ha, evaluated after 13 days; for pest or weed control at 500 g/ha: Lolium perenne, post-emergence, 312 h, read-out: Control of weed species after post-emergence application, LOLPE (100=total damage to plant; 0=no damage to plant)
Outline: as §1

Setaia fabei (SETFA) = conditions: Application Rate 500 g/Ha, evaluated after 13 days; for pest or weed control at 500 g/ha: Setaria faberi, post-emergence, 312 h, read-out: Control of weed species after post-emergence application, SETFA (100=total damage to plant; 0=no damage to plant)
Outline: as §1

Row | Structure (SMILES) | pest or weed control at 500 g/ha [1] [%] | pest or weed control at 500 g/ha [2] [%] | pest or weed control at 500 g/ha [3] [%] | pest or weed control at 500 g/ha [4] [%] | pest or weed control at 500 g/ha (Eleusine indica (ELEIN)) [%] | pest or weed control at 500 g/ha [5] [%] | pest or weed control at 500 g/ha [6] [%] | pest or weed control at 500 g/ha (Lolium perenne (LOLPE)) [%] | pest or weed control at 500 g/ha (Setaia fabei (SETFA)) [%] | Control of weed species after post-emergence application, AMAPA (100=total damage to plant; 0=no damage to plant) [1] | Control of weed species after post-emergence application, CHEAL (100=total damage to plant; 0=no damage to plant) [2] | Control of weed species after post-emergence application, DIGSA (100=total damage to plant; 0=no damage to plant) [3] | Control of weed species after post-emergence application, ECHCG (100=total damage to plant; 0=no damage to plant) [4] | Control of weed species after post-emergence application, ELEIN (100=total damage to plant; 0=no damage to plant) (Eleusine indica (ELEIN)) | Control of weed species after post-emergence application, EPHHL (100=total damage to plant; 0=no damage to plant) [5] | Control of weed species after post-emergence application, IPOHE (100=total damage to plant; 0=no damage to plant) [6] | Control of weed species after post-emergence application, LOLPE (100=total damage to plant; 0=no damage to plant) (Lolium perenne (LOLPE)) | Control of weed species after post-emergence application, SETFA (100=total damage to plant; 0=no damage to plant) (Setaia fabei (SETFA))
1 | Cc1nc(-c2cc[n+](CCS(=O)(=O)[O-])nc2)oc1C [Compound A14] | 100 | 40 | 50 | 40 | 70 | 50 | 40 | 40 | 50 | – | – | – | – | – | – | – | – | –
2 | O=S(=O)([O-])OCC[n+]1ccc(-c2nccs2)cn1 [Compound A113] | 100 | 60 | 70 | 70 | 70 | 70 | 50 | 60 | 70 | – | – | – | – | – | – | – | – | –
3 | Cc1cnc(-c2cc[n+](CCC(=O)O)nc2)o1 [Compound A15, 3-[4-(5-methyloxazol-2-yl)pyridazin-1-ium-1-yl]propanoic acid; 2,2,2-trifluoroacetate] | 100 | 80 | 80 | 80 | 100 | 100 | 30 | 60 | 70 | – | – | – | – | – | – | – | – | –
4 | Nc1nnc(-c2cc[n+](CCS(=O)(=O)[O-])nc2)s1 [Compound A65] | 80 | 70 | 100 | 60 | 100 | 90 | 60 | 90 | 100 | – | – | – | – | – | – | – | – | –
5 | O=S(=O)([O-])CC[n+]1ccc(-c2cccs2)cn1 [Compound A36] | 100 | 60 | 10 | 0 | 20 | 30 | 30 | 20 | 10 | – | – | – | – | – | – | – | – | –
6 | O=S(=O)([O-])CC[n+]1ccc(-c2ncn[nH]2)cn1 [Compound A38] | 20 | 30 | 20 | 10 | 0 | 20 | 20 | 10 | 10 | – | – | – | – | – | – | – | – | –
7 | CC(CNS(=O)(=O)[O-])[n+]1ccc(-c2ncco2)cn1 (stereo not drawn) [Compound A83] | 100 | 70 | 60 | 60 | 70 | 70 | 40 | 50 | 60 | – | – | – | – | – | – | – | – | –
8 | O=S(=O)([O-])CC[n+]1ccc(-c2cocn2)cn1 [Compound A22, 2-(4-oxazol-4-ylpyridazin-1-ium-1-yl)ethanesulfonate] | 30 | 20 | 20 | 20 | 20 | 30 | 10 | 10 | 20 | – | – | – | – | – | – | – | – | –
9 | O=C(O)CC[n+]1ccc(-c2ncsn2)cn1 [Compound A142, 3-[4-(1,2,4-thiadiazol-3-yl)pyridazin-1-ium-1-yl]propanoic acid 2,2,2-trifluoroacetate] | 100 | 90 | 100 | 100 | 100 | 100 | 30 | 90 | 90 | – | – | – | – | – | – | – | – | –
10 | CS(=O)(=O)C[N-]C(=O)CCC[n+]1ccc(-c2ncco2)cn1 [Compound A74] | 100 | 90 | 90 | 40 | 100 | 70 | 80 | 60 | 80 | – | – | – | – | – | – | – | – | –
11 | Cn1nncc1-c1cc[n+](CCC(=O)O)nc1 [Compound A48] | 100 | 90 | 100 | 70 | 70 | 90 | 90 | 40 | 90 | – | – | – | – | – | – | – | – | –
12 | O=S(=O)([O-])CC[n+]1ccc(-c2ccoc2)cn1 [Compound A42] | 20 | 40 | 20 | 10 | 20 | 30 | 20 | 0 | 10 | – | – | – | – | – | – | – | – | –
13 | Cn1nnc(-c2cc[n+](CCS(=O)(=O)O)nc2)n1 [Compound A11] | 100 | 90 | 90 | 100 | 100 | 100 | 60 | 80 | 100 | – | – | – | – | – | – | – | – | –
14 | Cn1ncnc1-c1cc[n+](CCC(=O)O)nc1 [Compound A27] | 100 | 90 | 90 | 90 | 50 | 90 | 70 | 30 | 90 | – | – | – | – | – | – | – | – | –
15 | Cn1nc(C(F)(F)F)cc1-c1cc[n+](CCS(=O)(=O)[O-])nc1 [Compound A30] | 80 | 40 | 30 | 20 | 40 | 40 | 20 | 50 | 40 | – | – | – | – | – | – | – | – | –
16 | Cn1ccnc1-c1cc[n+](CCC(=O)O)nc1 [Compound A31, 3-[4-(1-methylimidazol-2-yl)pyridazin-1-ium-1-yl]propanoic acid; 2,2,2-trifluoroacetate] | 30 | 20 | 50 | 40 | 50 | 30 | 10 | 20 | 60 | – | – | – | – | – | – | – | – | –
17 | CNC(=O)c1oc(-c2cc[n+](CCC(=O)O)nc2)nc1C [Compound A129] | 100 | 70 | 70 | 60 | 90 | 90 | 80 | 60 | 100 | – | – | – | – | – | – | – | – | –
18 | O=S(=O)(O)CCCC[n+]1ccc(-c2ncco2)cn1 [Compound A68] | – | – | – | – | – | – | – | – | – | 100 | 90 | 70 | 60 | 70 | 90 | 50 | 70 | 80
